Data: US9617237B2, “Partially saturated tricyclic compounds and methods of making and using same” (Zafgen, Inc., priority 2011, dated 2017)
Where a name gives a salt, the structure may show the parent alone.

target: T1, recombinant human MetAP2 (Homo sapiens, UniProt P50579); experiment: Inhibition of recombinant human MetAP2 activity (fluorescence, MAS substrate, amino acid oxidase/Amplex red); format: biochemical; settings: manganese enzyme; 0.75 mM Methionine-Alanine-Serine (MAS) substrate; 30 minutes at 25° C.; pH 7.5; 1% DMSO
T1 construct: made in house; host or cells: Sf9 insect cells
Method: Compounds are tested for their capacity to inhibit recombinant human MetAP2 activity using the following assay.
Human recombinant MetAP2 expressed in Sf9 cells followed by affinity purification and EDTA treatment to remove endogenous active site cation was dialysed against MnCl2 to produce the manganese enzyme used in the assay. The assay was carried out for 30 minutes at 25° C. in 50 mM HEPES buffer containing 100 mM NaCl, pH 7.5 the presence of 0.75 mM Methionine-Alanine-Serine (MAS) substrate and 50 μg/ml amino acid oxidase using a dilution of purified MetAP2 giving >3-fold signal: noise. Cleavage of the substrate by MetAP2 and oxidation of free methionine by amino acid oxidase was detected and quantified using fluorescence generated by Amplex red (10-acetyl-3,7-dihydroxyphenoxazine) in combination with horseradish peroxidase which detects H2O2 released during the oxidation step. The fluorescent signal was detected using a multiwell fluorimeter. Compounds were diluted in DMSO prior to addition to assay buffer, the final DMSO concentration in the assay being 1%.
IC50 values are calculated using the XLfit software package (version 2.0.5).

T1 sequence (P50579 whole entry): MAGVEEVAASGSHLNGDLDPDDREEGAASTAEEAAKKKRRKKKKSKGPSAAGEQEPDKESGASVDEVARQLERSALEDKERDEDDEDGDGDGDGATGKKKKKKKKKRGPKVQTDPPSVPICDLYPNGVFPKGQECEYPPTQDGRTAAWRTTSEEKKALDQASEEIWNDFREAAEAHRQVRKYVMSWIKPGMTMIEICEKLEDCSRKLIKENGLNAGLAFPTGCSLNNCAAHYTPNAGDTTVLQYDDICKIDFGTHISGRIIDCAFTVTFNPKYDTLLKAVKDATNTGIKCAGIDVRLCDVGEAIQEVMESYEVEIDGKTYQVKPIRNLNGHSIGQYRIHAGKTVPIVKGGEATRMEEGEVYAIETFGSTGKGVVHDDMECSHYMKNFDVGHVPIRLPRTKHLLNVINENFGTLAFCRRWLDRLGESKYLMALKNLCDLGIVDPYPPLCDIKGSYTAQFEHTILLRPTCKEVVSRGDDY

Row | SMILES | IC50 [µM]
1 | CCN1CCN(Cc2cc(F)ccc2S(=O)(=O)Nc2ccc3c(c2C(=O)O)OC[C@@H]2C[C@H]32)C(=O)C1 (racemic) [(1aRS,7bSR)-5-[2-(4-Ethyl-2-oxopiperazin-1-ylmethyl)-4-fluorobenzene-sulfonylamino]-1,1a,2,7b-tetrahydrocyclopropa-[c]chromene-4-carboxylic acid] | 0.05 to 0.5
2 | CCN1CC(CCc2cc(F)ccc2S(=O)(=O)Nc2ccc3c(c2C(=O)O)OC[C@@H]2C[C@H]32)C1 (racemic) [(1aRS,7bSR)-5-{2-[2-(1-Ethylazetidin-3-yl)ethyl]-4-fluoro-benzenesulfonyl-amino}-1,1a,2,7b-tetrahydrocyclopropa-[c]chromene-4-carboxylic acid] | 0.05 to 0.5
3 | CCN1CCN(CCc2cc(F)ccc2S(=O)(=O)Nc2ccc3c(c2C(=O)O)OC[C@@H]2C[C@H]32)CC1 (racemic) [(1aRS,7bSR)-5-{2-[2-(4-Ethylpiperazin-1-yl)-ethyl]-4-fluorobenzenesulfonylamino}-1,1a,2,7b-tetrahydrocyclopropa[c]chromene-4-carboxylic acid] | 0.05 to 0.5
4 | O=C(O)c1c(NS(=O)(=O)c2ccc(F)cc2CCN2CCCC2)ccc2c1OC[C@@H]1C[C@H]21 (racemic) [(1aRS,7bSR)-5-{2-[2-(Pyrrolidin-1-yl)-ethyl]-4-fluorobenzene-sulfonylamino}-1,1a,2,7b-tetrahydrocyclopropa[c]chromene-4-carboxylic acid] | 0.05 to 0.5
5 | O=C(O)c1c(NS(=O)(=O)c2ccccc2N[C@H]2CN3CCC2CC3)ccc2c1OCC1CC21 (mixture of isomers) [(1aRS,7bSR)-5-{2-[((R)-1-Azabicyclo[2.2.2]oct-3-yl)amino]benzenesulfonyl-amino}-1,1a,2,7b-tetrahydrocyclopropa[c]chromene-4-carboxylic acid] | < 0.05
6 | O=C(O)c1c(NS(=O)(=O)c2ccccc2N[C@@H]2CN3CCC2CC3)ccc2c1OCC1CC21 (mixture of isomers) [(1aRS,7bSR)-5-{2-[((S)-1-Azabicyclo[2.2.2]oct-3-yl)amino]benzenesulfonyl-amino}-1,1a,2,7b-tetrahydrocyclopropa[c]chromene-4-carboxylic acid] | 0.05 to 0.5
7 | CN(C)CCCCN(C)c1ccccc1S(=O)(=O)Nc1ccc2c(c1C(=O)O)OC[C@@H]1C[C@H]21 (racemic) [(1aRS,7bSR)-5-{2-[N-(4-Dimethylaminobutyl)-N-methylamino]-benzenesulfonyl-amino}-1,1a,2,7b-tetrahydrocyclopropa-[c]chromene-4-carboxylic acid] | > 0.5
8 | O=C(O)c1c(NS(=O)(=O)c2ccc(F)cc2/C=C\CN2CCC2)ccc2c1OC[C@@H]1C[C@H]21 (racemic) [(1aRS,7bSR)-5-{2[(Z)-3-(Azetidin-1-yl)prop-1-enyl]-4-fluorobenzene-sulfonylamino}-1,1a,2,7b-tetrahydro-cyclopropa[c]chromene-4-carboxylic acid] | 0.05 to 0.5
9 | O=C(O)c1c(NS(=O)(=O)c2ccccc2)ccc2c1OC[C@H]1OCC[C@@H]21 (racemic) [Cis-(3aRS,9bRS)-7-(Benzenesulfonylamino)-1,3a,4,9b-tetrahydro-2H-furo[2,3-c]chromene-6-carboxylic acid] | 0.05 to 0.5
10 | CCN(CC)CCCc1cc(F)ccc1S(=O)(=O)Nc1ccc2c(c1C(=O)O)OC[C@H]1OCC[C@@H]21 (racemic) [Cis-(3aRS,9bRS)-7-[2-(3-Diethylaminopropyl)-4-fluorobenzenesulfonyl-amino]-1,3a,4,9b-tetrahydro-2H-furo[2,3-c]chromene-6-carboxylic acid] | 0.05 to 0.5
11 | CN(C)CCCCNc1ccccc1S(=O)(=O)Nc1ccc2c(c1C(=O)O)OC[C@H]1OCC[C@@H]21 (racemic) [Cis-(3aRS,9bRS)-7-[2-(4-dimethylamino-butylamino)-benzenesulfonylamino]-1,3a,4,9b-tetrahydro-2H-furo[2,3-c]chromene-6-carboxylic acid] | 0.05 to 0.5
12 | CCN(CC)CC/C=C\c1cc(F)ccc1S(=O)(=O)Nc1ccc2c(c1C(=O)O)OCC1CC21 (single isomer, unassigned) [(1aRS,7bSR)-5-[2((Z)-4-diethylaminobut-1-enyl)-4-fluorobenzenesulfonyl-amino]-1,1a,2,7b-tetrahydrocyclopropa[c]chromene-4-carboxylic acid] | 0.05 to 0.5
13 | O=C(O)c1c(NS(=O)(=O)c2ccc(F)cc2/C=C\CN2CCCC2)ccc2c1OC[C@@H]1C[C@H]21 (single isomer, unassigned) [(1aRS,7bSR)-5-{2[(Z)-3-(pyrrolidin-1-yl)prop-1-enyl]-4-fluorobenzenesulfonylamino}-1,1a,2,7b-tetrahydro-cyclopropa[c]chromene-4-carboxylic acid] | 0.05 to 0.5
14 | CCN(CC)C/C=C\c1cc(F)ccc1S(=O)(=O)Nc1ccc2c(c1C(=O)O)OCC1CC21 (stereo not drawn) [5-[2-((Z)-3-Diethylaminoprop-1-enyl)-4-fluorobenzenesulfonyl-amino]-1,1a,2,7b-tetrahydrocyclopropa[c]chromene-4-carboxylic acid] | < 0.05
15 | O=C(O)c1c(NS(=O)(=O)c2ccccc2)ccc2c3c(cnc12)OCC3 [7-(Benzenesulfonylamino))-1,2-dihydrofuro[2,3-c]quinoline-6-carboxylic acid formate salt] | < 0.05
16 | CCN(CC)C/C=C\c1cc(F)ccc1S(=O)(=O)Nc1ccc2c3c(cnc2c1C(=O)O)OCC3 [7-[2-((Z)-3-Diethylaminoprop-1-enyl)-4-fluorobenzenesulfonyl-amino]-1,2-dihydrofuro[2,3-c]quinoline-6-carboxylic acid formate salt] | < 0.05
17 | CCN(CC)C/C=C\c1cc(F)ccc1S(=O)(=O)Nc1ccc2c(c1C(=O)O)OC[C@@H]1C[C@H]21 [(1aR,7bS) 5-[2-((Z)-3-Diethylaminoprop-1-enyl)-4-fluorobenzenesulfonyl-amino]-1,1a,2,7b-tetrahydrocyclopropa[c]chromene-4-carboxylic acid] | < 0.05
18 | CCN1CCCC(Cc2cc(F)ccc2S(=O)(=O)Nc2ccc3c(c2C(=O)O)OC[C@@H]2C[C@H]32)C1 (stereo partly drawn) [(1aR,7bS)-5-[2-(1-Ethylpiperidin-3-ylmethyl)-4-fluorobenzene-sulfonylamino]-1,1a,2,7b-tetrahydrocyclopropa[c]chromene-4-carboxylic acid] | 0.05 to 0.5

Continued, values first:

Row | IC50 [µM] | SMILES
19 | < 0.05 | CN(C)CCCCCNc1ccccc1S(=O)(=O)Nc1ccc2c(c1C(=O)O)OC[C@@H]1C[C@H]21 (racemic) [(1aRS,7bSR)-5-[2-(5-Dimethylaminopentylamino)benzene-sulfonylamino]-1,1a,2,7b-tetrahydrocyclopropa[c]chromene-4-carboxylic acid]
20 | < 0.05 | CCN(CC)C/C(C)=C\c1cc(F)ccc1S(=O)(=O)Nc1ccc2c(c1C(=O)O)OC[C@@H]1C[C@H]21 (racemic) [(1aRS,7bSR)-5-[2-((Z)-3-Diethylamino-2-methylprop-1-enyl)-4-fluorobenzene-sulfonylamino]-1,1a,2,7b-tetrahydrocyclopropa-[c]chromene-4-carboxylic acid]
21 | < 0.05 | CCN(CC)C/C=C\c1cc(F)ccc1S(=O)(=O)Nc1ccc2c(c1C(=O)O)OCC1C2C1(F)F (racemic) [(1aRS,7bSR)-5-[2-((Z)-3-Diethylaminoprop-1-enyl)-4-fluorobenzene-sulfonylamino]-1,1-difluoro-1,1a,2,7b-tetrahydrocyclopropa[c]chromene-4-carboxylic acid]
22 | < 0.05 | O=C(O)c1c(NS(=O)(=O)c2ccc(F)cc2/C=C\CN2CCCC2)ccc2c1OC[C@@H]1C[C@H]21 (racemic) [(1aRS,7bSR)-5-{2[(Z)-3-(Pyrrolidin-1-yl)prop-1-enyl]-4-fluorobenzenesulfonylamino}-1,1a,2,7b-tetrahydro-cyclopropa[c]chromene-4-carboxylic acid]
23 | < 0.05 | O=C(O)c1c(NS(=O)(=O)c2ccc(F)cc2CCCN2CCCC2)ccc2c1OC[C@H]1OCC[C@@H]21 (racemic) [Cis-(3aRS,9bRS)-7-[2-(3-{Pyrrolidin-1-yl}propyl)-4-fluorobenzene-sulfonylamino]-1,3a,4,9b-tetrahydro-2H-furo[2,3-c]chromene-6-carboxylic acid]
24 | < 0.05 | CCN(CC)C/C=C\c1cc(F)ccc1S(=O)(=O)Nc1ccc2c(c1C(=O)O)OC[C@H]1OCC[C@@H]21 (racemic) [Cis-(3aRS,9bRS)-7-[2-((Z)-3-Diethylaminoprop-1-enyl)-4-fluoro-benzenesulfonylamino]-1,3a,4,9b-tetrahydro-2H-furo[2,3-c]chromene-6-carboxylic acid]
25 | < 0.05 | CCN(CC)C/C=C\c1cc(F)ccc1S(=O)(=O)Nc1ccc2c(c1C(=O)O)NC[C@H]1OCC[C@@H]21 (racemic) [Cis-(3aRS,9bRS)-7-[2-((Z)-3-Diethylaminoprop-1-enyl)-4-fluorobenzenesulfonylamino]-1,2,3a,4,5,9b-hexahydrofuro[2,3-c]quinoline-6-carboxylic acid]
26 | < 0.05 | CCN1CC[C@@H](Cc2cc(F)ccc2S(=O)(=O)Nc2ccc3c(c2C(=O)O)OC[C@@H]2C[C@H]32)C1 (single isomer, unassigned)
27 | < 0.05 | CCNC/C=C\c1cc(F)ccc1S(=O)(=O)Nc1ccc2c(c1C(=O)O)OC[C@@H]1C[C@H]21 (single isomer, unassigned) [(1aRS,7bSR)-5-[2((Z)-3-ethylaminoprop-1-enyl)-4-fluorobenzenesulfonylamino]-1,1a,2,7b-tetrahydrocyclopropa[c]chromene-4-carboxylic acid]
